This passage reports Reaction time results from ChEMBL document CHEMBL1149983, “Probing the S-1 subsite selectivity of an industrial alkaline protease in anhydrous t-butanol” (Bioorg Med Chem Lett, 1993).

Structures are written as SMILES. Peptide text beside a SMILES is read from it. * marks the point of attachment. Cbz = O=C(OCc1ccccc1)*

A short description of the assay: Reaction time taken for industrial alkaline protease catalyzed synthesis using CBz-Phe-OCP as acyl donor and Gly-NH2 as nucleophile.
The molecule `NC(=O)CNC(=O)CNC(=O)[C@H](Cc1ccccc1)NC(=O)OCc1ccccc1` (Cbz-Phe-Gly-Gly-NH2) gave a Reaction time of 1.5 h.
With `NC(=O)[C@H](Cc1ccccc1)NC(=O)[C@H](Cc1ccccc1)NC(=O)OCc1ccccc1` the figure was 1 h; with `NC(=O)[C@@H](Cc1ccccc1)NC(=O)[C@H](Cc1ccccc1)NC(=O)OCc1ccccc1`, 2 h; with `CC(C)C[C@H](NC(=O)CNC(=O)[C@H](Cc1ccccc1)NC(=O)OCc1ccccc1)C(N)=O` (Cbz-Phe-Gly-Leu-NH2), 1 h.
Then `CCCOC(=O)[C@@H](C)NC(=O)[C@H](CC(=O)OCc1ccccc1)NC(=O)OCc1ccccc1`, with 2 h; and `NC(=O)[C@H](Cc1ccccc1)NC(=O)CNC(=O)[C@H](Cc1ccccc1)NC(=O)OCc1ccccc1` (Cbz-Phe-Gly-Phe-NH2), with 1 h.
Then `CC(C)C[C@@H](NC(=O)[C@H](Cc1ccccc1)NC(=O)OCc1ccccc1)C(N)=O`, with 1.5 h; and `NC(=O)CNC(=O)[C@H](Cc1ccccc1)NC(=O)OCc1ccccc1` (Cbz-Phe-Gly-NH2), with 1 h; and `CC(C)C[C@H](NC(=O)[C@H](Cc1ccccc1)NC(=O)OCc1ccccc1)C(N)=O`, with 1 h.
